Here are results for nine compounds from DBAASP.

Values after ≈ are worked out from the molar mass of the structure shown. Bounds are passed on as bounds.

One may read the MIC as the least concentration at which growth counts as inhibited. The low end stands for a more susceptible organism, the high end for a less susceptible organism.

Experiment in all cases: ≥ marks a high value that may be exact or a test limit, other limits are often not marked, values filed in µg/mL are converted to µM
The subject of assay [1] is Staphylococcus aureus IFO 12732.
Assay [2] has as its system Escherichia coli IFO 12734.
Assay [3] deals with Bacillus subtilis IFO 3513.
Assay [4] has as its system Batrachochytrium dendrobatidis JEL-197.
Assay [5] has as its system Bacillus subtilis ATCC 6633.
Assay [6] has as its system Micrococcus luteus ATCC 10240.
Assay [7] deals with Shigella dysenteriae ATCC 9752.
The test system of assay [8] is Klebsiella pneumoniae ATCC 10031.
The subject of assay [9] is Staphylococcus epidermidis ATCC 12228.
The test system of assay [10] is Staphylococcus aureus ATCC 6538P.
Assay [11] relates to Salmonella enterica subsp. enterica serovar Typhimurium ATCC 14028.
The subject of assay [12] is Escherichia coli ATCC 25922.
For assay [13], the system named is Pseudomonas aeruginosa ATCC 27853.
Assay [14] relates to Escherichia coli NCTC 12923.
Assay [15] deals with Pseudomonas aeruginosa PAO1.
Assay [16] has as its system Staphylococcus aureus ATCC 9144.
The test system of assay [17] is Staphylococcus aureus USA 300.
The test system of assay [18] is Candida albicans NCPF 1467.
Assay [19] has as its system Staphylococcus aureus NCTC 10788.
For assay [20], the system named is Escherichia coli NCTC 10418.
The test system of assay [21] is Acinetobacter baumannii ATCC 17978.
The test system of assay [22] is Klebsiella pneumoniae NCTC 13368.
Assay [23] deals with Escherichia coli ATCC 25726.
Assay [24] deals with Staphylococcus aureus ATCC 25923.
In assay [25] the test system is Candida albicans ATCC 90028.

Regarding `CC[C@H](C)[C@H](N)C(=O)N[C@@H](CC(C)C)C(=O)N1CCC[C@H]1C(=O)N[C@@H](Cc1c[nH]c2ccccc12)C(=O)N[C@@H](CCCCN)C(=O)N[C@@H](Cc1c[nH]c2ccccc12)C(=O)N1CCC[C@H]1C(=O)N[C@@H](CC(C)C)C(=O)N[C@@H](Cc1c[nH]c2ccccc12)C(=O)N1CCC[C@H]1C(=O)N[C@@H](Cc1c[nH]c2ccccc12)C(=O)N[C@@H](CCCN=C(N)N)C(=O)N[C@@H](CCCN=C(N)N)C(N)=O` [ILPWKWPLWPWRR], the results for the MIC in assay [1], in assay [2] and in assay [3] were 0.851 µM (≈ 1.56 µg/mL), 6.81 µM (≈ 12.5 µg/mL) and 1.71 µM (≈ 3.13 µg/mL), respectively.

On to `CC[C@H](C)[C@H](NC(=O)[C@H](CCCCN)NC(=O)CNC(=O)[C@H](Cc1ccccc1)NC(=O)[C@H](CC(C)C)NC(=O)[C@@H](N)CC(C)C)C(=O)N[C@H](C(=O)N[C@@H](CO)C(=O)N[C@@H](CCCN=C(N)N)C(=O)N[C@@H](CC(C)C)C(=O)N[C@@H](CC(C)C)C(=O)NCC(=O)N[C@@H](CC(N)=O)C(=O)O)[C@@H](C)CC` [LLFGKIISRLLGN], for which the MIC in assay [4] was at least 250 µM.

Regarding `CC(C)C[C@H](NC(=O)[C@H](Cc1c[nH]c2ccccc12)NC(=O)CNC(=O)[C@H](CC(C)C)NC(=O)[C@@H](N)Cc1ccccc1)C(=O)N[C@@H](Cc1ccccc1)C(=O)N[C@@H](CCCCN)C(=O)N[C@@H](Cc1c[nH]c2ccccc12)C(=O)N[C@@H](C)C(=O)N[C@@H](CO)C(=O)N[C@@H](CCCCN)C(N)=O` [FLGWLFKWASK], the MIC in assay [5] was 18.1 µM (≈ 25 µg/mL); in [6] it was 9.04 µM (≈ 12.5 µg/mL); in assay [7] it was 18.1 µM (≈ 25 µg/mL); in assay [8], at least 36.2 µM; in assay [9], 36.2 µM (≈ 50 µg/mL); in assay [10] it was 18.1 µM (≈ 25 µg/mL). In addition, the MIC in assay [11] came to 145 µM (≈ 200 µg/mL); in [12] it was 36.2 µM (≈ 50 µg/mL); in assay [13], 145 µM (≈ 200 µg/mL).

Take `CC[C@H](C)[C@H](N)C(=O)N[C@@H](CC(C)C)C(=O)N1CCC[C@H]1C(=O)N[C@@H](Cc1c[nH]c2ccccc12)C(=O)N[C@@H](CCCCN)C(=O)N[C@@H](Cc1c[nH]c2ccccc12)C(=O)N1CCC[C@H]1C(=O)N[C@@H](Cc1c[nH]c2ccccc12)C(=O)N[C@@H](CC(C)C)C(=O)N1CCC[C@H]1C(=O)N[C@@H](CCCCN)C(=O)N[C@@H](CCCN=C(N)N)C(=O)N[C@@H](CCCN=C(N)N)C(N)=O` [ILPWKWPWLPKRR]: the MIC in assay [1] amounted to 3.52 µM (≈ 6.25 µg/mL); in [2], 28.2 µM (≈ 50 µg/mL); in assay [3] it was 1.76 µM (≈ 3.13 µg/mL).

As to `CC[C@H](C)[C@H](NC(=O)[C@H](C)NC(=O)[C@H](CCCCN)NC(=O)[C@@H]1CCCN1C(=O)[C@@H](NC(=O)[C@H](CC(C)C)NC(=O)[C@H](CO)NC(=O)[C@H](Cc1ccccc1)NC(=O)[C@H](CC(C)C)NC(=O)[C@@H](N)Cc1ccccc1)[C@@H](C)CC)C(=O)NCC(=O)NCC(=O)N[C@@H](CC(C)C)C(=O)N[C@H](C(=O)N[C@@H](CO)C(=O)N[C@@H](C)C(=O)N[C@@H](Cc1ccccc1)C(=O)N[C@@H](CCCCN)C(N)=O)[C@@H](C)CC` [FLFSLIPKAIGGLISAFK], the MIC in [14] was 8.32 µM (≈ 16 µg/mL); in assay [15], above 66.6 µM; in assay [16], 2.08 µM (≈ 4 µg/mL); in [17], 4.16 µM (≈ 8 µg/mL); in assay [18], 5 µM (≈ 9.61 µg/mL); in [19] it was 3 µM (≈ 5.76 µg/mL). Besides, the figures for the MIC in assay [20], in [21] and in assay [22] were 5 µM (≈ 9.61 µg/mL), 4.16 µM (≈ 8 µg/mL) and at least 33.3 µM, respectively.

For the compound `CC(=O)N[C@@H](CCCCN)C(=O)N[C@@H](C)C(=O)N[C@@H](C)C(=O)N[C@@H](CCCCN)C(=O)N[C@@H](C)C(=O)N[C@@H](C)C(=O)N[C@@H](CCCCN)C(=O)N[C@@H](CCCCN)C(=O)N[C@@H](C)C(=O)N[C@@H](C)C(=O)N[C@@H](CCCCN)C(=O)N[C@@H](C)C(=O)N[C@@H](C)C(=O)N[C@@H](Cc1c[nH]c2ccccc12)C(=O)N[C@@H](CCCCN)C(N)=O` [KAAKAAKKAAKAAWK], the MIC in assay [5] was at least 130 µM; in [7], at least 130 µM; in assay [8], at least 130 µM; in [9] it was 130 µM (≈ 205 µg/mL); in [10] it was at least 130 µM; in assay [11] it was 130 µM (≈ 205 µg/mL). The MIC in [12] and in [13] was 130 µM (≈ 205 µg/mL) each time.

`CC[C@H](C)[C@@H]1NC(=O)[C@H](C)NC(=O)[C@@H](NC(=O)[C@H](Cc2ccccc2)NC(=O)[C@@H](NC(=O)[C@H](CCCCN)NC(=O)[C@@H]2CCCN2C(=O)[C@H](CC(C)C)NC(=O)[C@H](Cc2ccccc2)NC(=O)[C@H](CCC(N)=O)NC(=O)CNC(=O)[C@H](C)NC(=O)[C@H](C)NC(=O)CNC(=O)[C@@H](NC(=O)[C@@H](NC(=O)[C@H](C)NC(=O)[C@@H]2CCCN2C(=O)[C@H](CC(C)C)NC(=O)[C@@H](N)Cc2ccccc2)[C@@H](C)CC)C(C)C)[C@@H](C)CC)CSSC[C@@H](C(=O)O)NC(=O)[C@H](CCCCN)NC(=O)[C@H](CCCCN)NC(=O)[C@H](CO)NC1=O` [FLPAIVGAAGQFLPKIFCAISKKC]: the results for the MIC in [4] and in [12] were at least 40 µM and 55 µM (≈ 139 µg/mL), respectively.

Take `CC[C@H](C)[C@H](N)C(=O)N[C@@H](CC(C)C)C(=O)N1CCC[C@H]1C(=O)N[C@@H](Cc1c[nH]c2ccccc12)C(=O)N[C@@H](CCCCN)C(=O)N[C@@H](Cc1c[nH]c2ccccc12)C(=O)N1CCC[C@H]1C(=O)N[C@@H](Cc1c[nH]c2ccccc12)C(=O)N[C@@H](Cc1c[nH]c2ccccc12)C(=O)N1CCC[C@H]1C(=O)N[C@@H](CC(C)C)C(=O)N[C@@H](CCCN=C(N)N)C(=O)N[C@@H](CCCN=C(N)N)C(N)=O` [ILPWKWPWWPLRR]: the MIC in assay [1] is 1.71 µM (≈ 3.13 µg/mL); in assay [2], 13.6 µM (≈ 25 µg/mL); in [3], 1.71 µM (≈ 3.13 µg/mL).

Turning to `CC[C@H](C)[C@H](NC(=O)CN)C(=O)N[C@@H](CCSC)C(=O)N[C@@H](CC(N)=O)C(=O)N[C@H](C(=O)N[C@H](C(=O)N[C@@H](CCCCN)C(=O)N[C@@H](CC(=O)O)C(=O)N[C@H](C(=O)N[C@@H](C)C(=O)N[C@H](C(=O)NCC(=O)N[C@H](C(=O)N[C@@H](C)C(=O)N[C@H](C(=O)N[C@@H](Cc1cnc[nH]1)C(=O)N[C@@H](CC(C)C)C(=O)N[C@@H](CC(C)C)C(=O)N[C@@H](CC(N)=O)C(=O)N[C@@H](CCSC)C(=O)N[C@H](C(=O)N[C@@H](CCCCN)C(=O)N[C@H]1CSSC[C@@H](C(=O)O)NC(=O)CNC(=O)[C@H]([C@@H](C)O)NC(=O)[C@H]([C@@H](C)CC)NC(=O)[C@H](CCCCN)NC1=O)C(C)C)[C@@H](C)O)C(C)C)[C@@H](C)O)C(C)C)C(C)C)[C@@H](C)O` [GIMNTVKDVATGVATHLLNMVKCKITGC], the MIC was at least 50 µM in [23], at least 100 µM in assay [4], above 50 µM in assay [24] and at least 100 µM in assay [25].
